Laboratory results taken from patent US20080206183A1, “Method of Preparing Grafted Polylysine Dendrimers” (Central national De La Recherche Scientifique, priority 2005, published 2008).

Legend:
[1] = Hydrodynamic range by Taylor diffusion analysis (TDA); type: physicochemical
Experimental: (§1) In order to find the characteristic dimension of the GLDs in solution, the hydrodynamic ranges were determined from the molecular diffusion coefficients by using the Stoke-Einstein ratio:
(§2) where η is the viscosity of the medium, k the Boltzmann constant and T the temperature in K. In order to determine Dm, two experimental methods were used: quasi-elastic or static light diffusion (SLD) (coupled or not coupled with SEC), and the Taylor diffusion method (TDA). This latter method makes it possible to measure the diffusion coefficient of a species from the widening of a solute band under the influence of a hydrodynamic flow the speed profile of which is known to be dispersive (parabolic Poiseuille profile).
(§3) The TDA measurements were carried out using a capillary electrophoresis appliance, using silica capillaries of 50 μm i.d. (60 cm×50 cm up to the detector) the internal surface of which was previously modified by grafting a polycation (poly(diallyl-dimethyl-ammonium)) in order to limit the adsorption of the GLD solutes on the surface of the capillary. Dispersion of the solute band under the influence of the Poiseuille flow was measured using a UV spectrophotometer. The diffusion coefficient was then determined according to the method originally described by Taylor, then repeated by Bello et al.. In parallel to the TDA method, measurements were carried out by SLD, using a zetasizer (Malvern) device. Finally, it was also possible to obtain Rh measurements from the 3D-SEC (Viscotek). All of the numerical data for Rh is shown together in Table 3.

[2] = Hydrodynamic range by quasi-elastic or static light diffusion (SLD); type: physicochemical
Experimental: as §1, §2, §3

[3] = Buffer 1 (H2PO4−Na+ 50 g/L, pH 4.5)
[4] = Buffer 2 (Buffer 1 + 3% acetonitrile)
[5] = Buffer 3 (physiological buffer, pH 7.0)

Substance: linear poly-L-Lysine [P1]
- Rh (nm) hydrodynamic range [1, 3]: 1.1 nm
- Rh (nm) hydrodynamic range [1, 4]: 0.95 nm
- Rh (nm) hydrodynamic range [1, 5]: 0.74 nm
- Rh (nm) hydrodynamic range [2, 3]: 1.18 nm
- Rh (nm) hydrodynamic range [2, 4]: 1.1 nm
- Rh (nm) hydrodynamic range [2, 5]: 1.01 nm
